Target: Serotonin 2 (5-HT2) receptor (Rattus norvegicus, UniProt P30994+P08909+P14842)
Experiment: In vitro binding affinity towards 5-hydroxytryptamine 2 receptor in rat striatal membranes by [3H]ketanserin displacement.
Format: cell membranes, Striatum, Membrane

| SMILES | Ki [nM] |
| --- | --- |
| O=C(CCCCN1C2CCC1c1c([nH]c3ccc(F)cc13)C2)c1ccc(F)cc1 (mixture of isomers) | 109 |
| O=C(CCCCN1C2CCC1c1c([nH]c3ccc(F)cc13)C2)c1ccc(F)cc1 (racemic) | 2.98 |
| O=C(CCCN1C2CCC1c1c([nH]c3ccc(F)cc13)C2)c1ccc(F)cc1 (stereo in doubt; (S,R) 8) | 0.8 |
| O=C(CCCN1C2CCC1c1c([nH]c3ccc(F)cc13)C2)c1ccc(F)cc1 (racemic) | 1.96 |
| O=C(CCCCN1C2CCC1c1c([nH]c3ccc(F)cc13)C2)c1ccc(F)cc1 (stereo in doubt; (S,R)-9) | 1.87 |
| O=C(CCCN1C2CCC1c1c([nH]c3ccc(F)cc13)C2)c1ccc(F)cc1 (mixture of isomers) | 2.56 |

— ChEMBL document CHEMBL1126850, “Examination of the D2/5-HT2 affinity ratios of resolved 5,6,7,8,9,10-hexahydro-7,10-iminocyclohept[b]indoles: an enantioselective approach toward the design of potential atypical antipsychotics” (J Med Chem, 1993)
